According to US7932262B2 (Novartis AG, priority 2006, dated 2011):
Read-outs that look alike come from different tables or passages of the source.

What was measured:
A2780 cells = test: Cell Proliferation Assay (Cell Titer Glo), A2780; format: cell-based; settings: Homo sapiens, read-out: CPEC50 A2780
Procedure, shortened: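 Following a 3-day compound exposure (37° C., 5% CO2) of A2780 or PC3MM cells plated at 1000 per well, viability was measured by Cell Titer Glo luminescence in fresh medium, read 10 min after reagent addition.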

PDK1 kinase = target: T1, PDK1 kinase (Homo sapiens, UniProt O15530); test: PDK1 Kinase Alpha Screen Assay; format: biochemical; settings: PDK1 Kinase Alpha Screen Assay; read-out: PDK1 IC50
T1 sequence (O15530 1-556): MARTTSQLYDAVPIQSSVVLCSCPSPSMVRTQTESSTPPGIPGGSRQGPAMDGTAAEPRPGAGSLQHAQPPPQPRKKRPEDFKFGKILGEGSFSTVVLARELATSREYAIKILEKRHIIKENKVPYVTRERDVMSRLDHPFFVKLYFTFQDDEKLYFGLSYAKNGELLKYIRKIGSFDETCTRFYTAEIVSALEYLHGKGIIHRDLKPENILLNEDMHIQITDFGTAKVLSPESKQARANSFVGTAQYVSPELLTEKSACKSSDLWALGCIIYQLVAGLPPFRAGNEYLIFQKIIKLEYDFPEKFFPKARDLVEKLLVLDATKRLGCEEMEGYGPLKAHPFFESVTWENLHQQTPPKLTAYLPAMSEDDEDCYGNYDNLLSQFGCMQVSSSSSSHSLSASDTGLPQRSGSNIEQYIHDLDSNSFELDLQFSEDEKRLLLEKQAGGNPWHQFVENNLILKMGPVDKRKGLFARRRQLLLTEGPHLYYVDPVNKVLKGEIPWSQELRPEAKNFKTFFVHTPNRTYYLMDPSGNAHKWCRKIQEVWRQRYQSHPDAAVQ
Procedure, shortened: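 AlphaScreen readout: phospho-peptide captured by phospho-(Ser/Thr) PKA substrate antibody (0.3 mg/ml) on protein A acceptor beads, biotin peptide on streptavidin donor beads (25 μg/ml each), overnight at room temperature. Kinase step used 50 nM PDK1-4 peptide, 10 uM ATP, 3-18 hours.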

[1] = Cell Proliferation Assay, A2780
[2] = cell proliferation, A2780 cells

Compound	EC50 (A2780 cells; [1]) [µM]	IC50 (PDK1 kinase) [µM]	EC50 (A2780 cells; [2]) [µM]
CC(C)(C(N)=O)C(=O)NCCOc1cccc2cnc(Nc3ccccc3)nc12 [Compound 508, 2,2-dimethyl-N1-(2-(2-(phenylamino)quinazolin-8-yloxy)ethyl)malonamide]	5 to 10	5 to 10	
NS(=O)(=O)c1ccc(Nc2ncc3cccc(OCC(=O)N4CCOCC4)c3n2)cc1 [Compound 518, 4-(8-(2-morpholino-2-oxoethoxy)quinazolin-2-ylamino)benzenesulfonamide]	5 to 10	5 to 10	
Cc1cc(S(N)(=O)=O)ccc1Nc1ncc2cccc(OC(C)C)c2n1 [Compound 562, 4-(8-isopropoxyquinazolin-2-ylamino)-3-methylbenzenesulfonamide]	< 5	10 to 25	
NC(=O)c1ccc2cnc(Nc3ccc(S(N)(=O)=O)cc3)nc2c1 [Compound 564, 2-(4-sulfamoylphenylamino)quinazoline-7-carboxamide]	< 5	< 5	
NS(=O)(=O)c1ccc(Nc2ncc3cccc(C(=O)O)c3n2)cc1 [Compound 622, 2-(4-sulfamoylphenylamino)quinazoline-8-carboxylic acid]	5 to 10	5 to 10	
CC(C)NC(=O)c1cccc2cnc(Nc3ccc(S(N)(=O)=O)cc3)nc12 [Compound 624, N-isopropyl-2-(4-sulfamoylphenylamino)quinazoline-8-carboxamide]	< 5	< 5	
NC(=O)c1ccc(COc2cccc3cnc(Nc4ccc(S(N)(=O)=O)cc4)nc23)cc1 [Compound 628, 4-((2-(4-sulfamoylphenylamino)quinazolin-8-yloxy)methyl)benzamide]	5 to 10	< 5	
COc1ccc2cnc(Nc3ccc(S(N)(=O)=O)cc3)nc2c1 [Compound 629, 4-(7-methoxyquinazolin-2-ylamino)benzenesulfonamide]	< 5	< 5	
CN(C)CCOc1ccc2cnc(Nc3ccc(S(N)(=O)=O)cc3)nc2c1 [Compound 630, 4-(7-(2-(dimethylamino)ethoxy)quinazolin-2-ylamino)benzenesulfonamide]	5 to 10	< 5	
NS(=O)(=O)c1ccc(Nc2ncc3ccc(OCC4CCNCC4)cc3n2)cc1 [Compound 631, 4-(7-(piperidin-4-ylmethoxy)quinazolin-2-ylamino)benzenesulfonamide]	< 5	< 5	
NS(=O)(=O)c1ccc(Nc2ncc3ccc(OCCC4CCNCC4)cc3n2)cc1 [Compound 632, 4-(7-(2-(piperidin-4-yl)ethoxy)quinazolin-2-ylamino)benzenesulfonamide]	< 5	< 5	
CC(C)Cn1cc(-c2ccc3cnc(Nc4ccc(S(N)(=O)=O)cc4)nc3c2)cn1 [Compound 849, 4-(7-(1-isobutyl-1H-pyrazol-4-yl)quinazolin-2-ylamino)benzenesulfonamide]		< 5	< 5
NS(=O)(=O)c1ccc(Nc2ncc3ccc(-c4ccnc(NCCN5CCCC5)c4)cc3n2)cc1 [Compound 850, 4-(7-(2-(2-(pyrrolidin-1-yl)ethylamino)pyridin-4-yl)quinazolin-2-ylamino)benzenesulfonamide]		< 5	5 to 10
NS(=O)(=O)c1ccc(Nc2ncc3ccc(-c4ccnc(N5CCCC5)c4)cc3n2)cc1 [Compound 851, 4-(7-(2-(pyrrolidin-1-yl)pyridin-4-yl)quinazolin-2-ylamino)benzenesulfonamide]		5 to 10	< 5
NS(=O)(=O)c1ccc(Nc2ncc3ccc(-c4ccnc(N5CCOCC5)c4)cc3n2)cc1 [Compound 852, 4-(7-(2-morpholinopyridin-4-yl)quinazolin-2-ylamino)benzenesulfonamide]		< 5	< 5
NS(=O)(=O)c1ccc(Nc2ncc3ccc(-c4cccnc4)c(OC4CCNCC4)c3n2)cc1 [Compound 853, 4-(8-(piperidin-4-yloxy)-7-(pyridin-3-yl)quinazolin-2-ylamino)benzenesulfonamide]		< 5	< 5
NC(=O)c1ccc(-c2ccc3cnc(Nc4ccc(S(N)(=O)=O)cc4)nc3c2OC2CCNCC2)cc1 [Compound 854, 4-(8-(piperidin-4-yloxy)-2-(4-sulfamoylphenylamino)quinazolin-7-yl)benzamide]		< 5	5 to 10
NS(=O)(=O)c1ccc(Nc2ncc3ccc(-c4ccncc4)c(OC4CCNCC4)c3n2)cc1 [Compound 855, 4-(8-(piperidin-4-yloxy)-7-(pyridin-4-yl)quinazolin-2-ylamino)benzenesulfonamide]		< 5	5 to 10
Nc1ccc(-c2ccc3cnc(Nc4ccc(S(N)(=O)=O)cc4)nc3c2OC2CCNCC2)cn1 [Compound 856, 4-(7-(6-aminopyridin-3-yl)-8-(piperidin-4-yloxy)quinazolin-2-ylamino)benzenesulfonamide]		< 5	< 5
Nc1ncc(-c2ccc3cnc(Nc4ccc(S(N)(=O)=O)cc4)nc3c2OC2CCNCC2)cn1 [Compound 857, 4-(7-(2-aminopyrimidin-5-yl)-8-(piperidin-4-yloxy)quinazolin-2-ylamino)benzenesulfonamide]		< 5	5 to 10
COc1cncc(-c2ccc3cnc(Nc4ccc(S(N)(=O)=O)cc4)nc3c2OC2CCNCC2)c1 [Compound 858, 4-(7-(5-methoxypyridin-3-yl)-8-(piperidin-4-yloxy)quinazolin-2-ylamino)benzenesulfonamide]		< 5	< 5
NS(=O)(=O)c1ccc(Nc2ncc3ccc(-c4cn[nH]c4)c(OC4CCNCC4)c3n2)cc1 [Compound 859, 4-(8-(piperidin-4-yloxy)-7-(1H-pyrazol-4-yl)quinazolin-2-ylamino)benzenesulfonamide]		< 5	< 5

Next, values leading:

EC50 (A2780 cells; [1]) [µM]	IC50 (PDK1 kinase) [µM]	EC50 (A2780 cells; [2]) [µM]	Compound
< 5	< 5		CC(C)Oc1cccc2cnc(Nc3ccc(C(N)=O)cc3)nc12 [Compound 506, 4-(8-isopropoxyquinazolin-2-ylamino)benzamide]
5 to 10	< 5		NCCOc1cccc2cnc(Nc3ccccc3)nc12 [Compound 507, 8-(2-aminoethoxy)-N-phenylquinazolin-2-amine]
< 5	< 5		NS(=O)(=O)c1ccc(Nc2ncc3cccc(OCCN4CCOCC4)c3n2)cc1 [Compound 510, 4-(8-(2-mropholinoethoxy)quinazolin-2-ylamino)benzenesulfonamide]
< 5	< 5		NC(=O)c1cccc(COc2cccc3cnc(Nc4ccc(S(N)(=O)=O)cc4)nc23)c1 [Compound 513, 3-((2-(4-sulfamoylphenylamino)quinazolin-8-yloxy)methyl)benzamide]
< 5	< 5		CC(=O)Nc1ccc(COc2cccc3cnc(Nc4ccc(S(N)(=O)=O)cc4)nc23)cc1 [Compound 514, N-(4-((2-(4-sulfamoylphenylamino)quinazolin-8-yloxy)methyl)phenyl)acetamide]
< 5	< 5		CNC(=O)c1ccc(Nc2ncc3cccc(OC(C)C)c3n2)cc1 [Compound 515, 4-(8-isopropoxyquinazolin-2-ylamino)-N-methylbenzamide]
< 5	< 5		CC(C)NC(=O)c1ccc(Nc2ncc3cccc(OC(C)C)c3n2)cc1 [Compound 516, 4-(8-isopropoxyquinazolin-2-ylamino)-N-isopropylbenzamide]
< 5	< 5		CNS(=O)(=O)c1ccc(Nc2ncc3cccc(OC(C)C)c3n2)cc1 [Compound 517, 4-(8-isopropoxyquinazolin-2-ylamino)-N-methylbenzenesulfonamide]
< 5	< 5		CC(C)Oc1cccc2cnc(Nc3ccc(S(C)(=O)=O)cc3)nc12 [Compound 554, 8-isopropoxy-N-(4-(methylsulfonyl)phenyl)quinazolin-2-amine]
< 5	< 5		CC(C)Oc1cccc2cnc(Nc3cccc(S(C)(=O)=O)c3)nc12 [Compound 555, 8-isopropoxy-N-(3-(methylsulfonyl)phenyl)quinazolin-2-amine]
< 5	< 5		CC(C)Oc1cccc2cnc(Nc3cccc(S(N)(=O)=O)c3)nc12 [Compound 556, 3-(8-isopropoxyquinazolin-2-ylamino)benzenesulfonamide]
5 to 10	< 5		NS(=O)(=O)c1ccc(Nc2ncc3ccc(C(=O)O)cc3n2)cc1 [Compound 559, 2-(4-sulfamoylphenylamino)quinazoline-7-carboxylic acid]
< 5	< 5		CNC(=O)c1ccc2cnc(Nc3ccc(S(N)(=O)=O)cc3)nc2c1 [Compound 561, N-methyl-2-(4-sulfamoylphenylamino)quinazoline-7-carboxamide]
